Read-outs that look alike come from different tables or passages of the source.
Assay: logP by HPLC on reversed-phase column (C 18), EEC Directive 79/831 Annex V.A8
Format: physicochemical
Settings: 40° C., 0.1% aqueous formic acid and acetonitrile; for chromatographic logP: reversed-phase HPLC column (C 18)
Procedure: Temperature: 40° C.; Mobile phases: 0.1% aqueous formic acid and acetonitrile; linear gradient from 10% acetonitrile to 90% acetonitrile.
Calibration was carried out using unbranched alkan-2-ones (comprising 3 to 16 carbon atoms) with known logP values (determination of the logP values by the retention times using linear interpolation between two successive alkanones).

[1] = HPLC reversed-phase C 18, linear gradient 10% to 90% acetonitrile

| SMILES | log p (HCOOH) [1] | other results |
| --- | --- | --- |
| CCN(C)C=Nc1ccc(-c2ccc(OCc3ccccc3)cc2)cc1Cl [Compound 72] | 2.48 | – |
| CCc1cc(-c2ccc(F)c(C)c2)ccc1N=CN(C)CC [Compound 55] | 1.98 | – |
| CCN(C)C=Nc1cc(C)c(-c2ccc(C(C)(C)C)c(Br)c2)cc1C [Compound 164] | 3.13 | – |
| CCN(C)C=Nc1ccc(-c2ccc(OC)c(OC)c2)cc1C [Compound 38] | 1.49 | – |
| Cc1cc(-c2ccc(C(C)(C)C)cc2)c(C)cc1N=C1CCCCN1 [Compound 121, 4′-tert-butyl-2,5-dimethyl-N-[piperidin-2-ylidene]biphenyl-4-amine] | – | chromatographic logP (HPLC reversed-phase C 18, linear gradient 10% to 90% acetonitrile, read-out: log p (HCOOH)): 2.6; chromatographic logP (pH 2.3, HPLC, read-out: log P (pH 2.3)): 2.6 |
| CCN(C)C=Nc1cc(C)c(-c2ccc(OC)c(C)c2)cc1C [Compound 114] | 2.05 | – |
| CCN(C)C=Nc1cc(C)c(-c2ccc(C3CCCC3)cc2)cc1C [Compound 167] | 2.94 | – |
| CCc1cc(-c2ccc(OC)c(OC)c2)ccc1N=CN(C)CC [Compound 62] | 1.68 | – |
| CCN(C)C=Nc1cc(C)c(-c2ccc(C(C)(C)C)c(Cl)c2)cc1C [Compound 168] | 2.85 | – |
| Cc1cc(-c2ccc(Cl)cc2)c(C)cc1N=C1NCCCN1 [Compound 122] | 2.08 | – |
| Cc1cc(-c2ccc(C(F)(F)F)c(Cl)c2)c(C)cc1N=CN1CCCCC1 [Compound 145] | 2.78 | – |
| CCN(C)C=Nc1cc(C)c(-c2ccc([Si](C)(C)C)cc2)cc1C [Compound 151] | 2.98 | – |
| CCc1cc(-c2ccc(F)c(Cl)c2)ccc1N=CN(C)CC [Compound 10] | 2.17 | – |
| CCN(C)C=Nc1ccc(-c2ccc(Cl)cc2C)cc1Cl [Compound 113] | 2.03 | – |
| CCN(C)C=Nc1cc(C)c(-c2ccc(F)c(Cl)c2)cc1C [Compound 137] | 2.02 | – |
| CCN(C)C=Nc1cc(C#N)c(-c2ccc(C(C)(C)C)cc2)cc1C [Compound 177] | 2.21 | – |
| Cc1ccc(-c2cc(C)c(N=CN3CCCCC3)cc2C)cc1Cl [Compound 149] | 2.53 | – |
| CCC(C)c1ccc(-c2cc(C)c(N=CN(C)CC)cc2C)cc1 (centres unmarked) [Compound 163] | 2.92 | – |
| CCN(C)C=Nc1cc(C)c(-c2cc(OC)c(OC)c(OC)c2)cc1C [Compound 39] | 1.68 | – |
| CCN(C)C=Nc1cc(C)c(-c2ccc(F)c(C)c2)cc1C [Compound 45] | 2.08 | – |
| CCN(C)C(S)=Nc1cc(C)c(-c2ccc(C(C)(C)C)cc2)cc1C [Compound 28] | 4.58 | – |
| CCN(C)C=Nc1ccc(-c2ccc(F)c(Cl)c2)cc1Cl [Compound 3] | 1.92 | – |
| CCN(C)C=Nc1ccc(-c2ccc(Cl)cc2Cl)cc1Cl [Compound 69] | 2.32 | – |

Further lines, with some results ahead:

| log p (HCOOH) [1] | SMILES | other results |
| --- | --- | --- |
| 2.21 | CCN(C)C=Nc1cc(C)c(-c2ccc(S(=O)(=O)C(F)(F)F)cc2)cc1C [Compound 174] | – |
| 2.24 | CCN(C)C=Nc1ccc(-c2ccc(Br)cc2)cc1C(F)(F)F [Compound 80] | – |
| 1.94 | CCN(C)C=Nc1ccc(-c2ccc(C=NOC)cc2)cc1C [Compound 30] | – |
| 1.50 | CCN(C)C=Nc1ccc(-c2ccc(F)cc2)cc1F [Compound 15] | – |
| 2.59 | CCN(C)C=Nc1cc(C)c(-c2ccc(C(F)(F)F)c(Cl)c2)cc1C [Compound 142] | – |
| 2.30 | CCN(C)C=Nc1cc(C)c(-c2ccc(Cl)c(C(F)(F)F)c2)cc1Cl [Compound 107] | – |
| 1.84 | CCN(C)C=Nc1ccc(-c2ccc(OC)c(OC)c2OC)cc1C(F)(F)F [Compound 11] | – |
| 2.24 | CCN(C)C=Nc1ccc(-c2ccc(C(C)=NOC)cc2)cc1C(F)(F)F [Compound 78] | – |
| 2.65 | CCN(C)C=Nc1ccc(-c2ccc(Oc3ccccc3)cc2)cc1C(F)(F)F [Compound 89] | – |
| 1.99 | CCN(C)C=Nc1ccc(-c2ccc(C(F)(F)F)cc2)cc1Cl [Compound 24] | – |
| 2.60 | C=CCN(C)C=Nc1cc(C)c(-c2ccc(C(C)=NOCC)cc2)cc1C [Compound 140] | – |

Source: US7999137B2, “Pesticide bi-phenyl-amidine derivatives” (Bayer Cropscience AG, priority 2006, dated 2011)
